Results on one substance are retold here after patent US20230285516A1 (priority 2020, published 2023).

For one assay, the system named is Foxp3. The experiment in a line: Foxp3 gene expression in co-cultured tissues (RT-PCR). It is filed as cell-based, human. The settings on record: vs control. An excerpt: FIG. 7. Effect of type I polymerized collagen on the gene expression of pro- and anti-inflammatory cytokines and factors in the tissues of cartilage and synovial tissue co-cultures of patients with rheumatoid arthritis (RA). (A) Quantification of TNF-α, IL-6 and IL-10 gene expression and (B) Quantification of IL-23 and Foxp3 gene expression by RT-PCR in synovial membrane tissues and cartilage co-cultured for 7 days. The bars show the mean±SD of the transcript levels of the samples normalized through the expression of the housekeeping gene GADPH determined by 2ΔΔCt. The data represent the mean±SD of 9 cartilage and synovial co-cultures from RA patients. Each culture was performed in triplicate for each condition. Basal: tissue in basal conditions.
FIG. 8. Effect of type I polymerized collagen on the gene expression of pro- and anti-inflammatory cytokines and factors in the tissues of cartilage and synovial co-cultures of patients with Osteoarthritis (OA). (A) Quantification of IL-1β, INF-α, IL-6 and IL-10 gene expression, (B) IL-23 and Foxp3 by RT-PCR in co-cultured cartilage and synovial membrane tissues for 7 days. The bars show the mean±SD of the transcript levels of the samples normalized through the expression of the housekeeping gene GADPH determined by 2ΔΔCt. The data represent the mean±SD of 8 co-cultures from patients with OA. […]

In the next assay the test system is Treg (CD4+/FOXP3+) cells. The experiment in a line: FACS of spleen Foxp3+ regulatory T cells in CIA models. It is filed as in vivo, mice. The procedure:
Early Arthritis Model. Fifty mice with the same characteristics were immunized at the base of the tail with 100 μg of chicken type II collagen emulsified in complete Freund's adjuvant. The boost was applied on day 21 at the base of the tail with 100 μg of type II collagen emulsified with Freund's incomplete adjuvant. On the same boosting day, the treatments (a-d) were applied every week for six weeks. Three animals were euthanized in the sixth week and three in the thirteenth week. The spleen, lymph nodes, joint tissue, liver, lungs, kidneys and heart were obtained in order to assess the inflammatory infiltrate, the predominant cell populations and the expression of pro- and anti-inflammatory cytokines.
Established Arthritis Model. Arthritis was induced as in the previous model in 50 mice and the treatments were applied intramuscularly, after 2 weeks of the boost, every week for 6 weeks. Three animals were euthanized in the eighth week and three in the fifteenth week. The spleen, lymph nodes, joint tissue, liver, lungs, kidneys and heart were obtained in order to assess the inflammatory infiltrate, the predominant cell populations and the expression of pro- and anti-inflammatory cytokines.
Cytometric evaluation. Using FACS, the percentage of populations of Th1 ([…]), Th2 (CD4^+/IL-4^+), Treg (CD4^+/FOXP3^+) Th17 (CD4^+/IL-17^+) and dendritic (CD4−/CD11c^+) cells in spleen cells.
FIG. 10. Effect of type I polymerized collagen in the early (preventive) and long-standing (late or palliative) arthritis model on the percentage of spleen CD4+ T cell subpopulations. (A) Spleen cells obtained ex vivo in the early arthritis model during the first sacrifice. (B) Spleen cells obtained ex vivo in the early arthritis model during the second sacrifice. (C) Spleen cells obtained ex vivo in the long-standing arthritis model during the first sacrifice. […] The intracellular production of IL-17A, IL-4, IFN-γ and Foxp3 by CD4+ T cells was detected by flow cytometry. The results are representative of 6 mice analyzed in each group. […]

For the substance “collagen-polyvinylpyrrolidone [type I polymerized collagen]”, in the assay with Foxp3 (co-cultures from patients with OA), the “gene expression of Foxp3” value is given as “positive regulation”. In addition, in the assay on Foxp3 (co-cultures from patients with RA), the “transcription of FOXP3 gene” value is reported as “positively”. Besides, in the assay with Treg (CD4+/FOXP3+) cells (CIA model, fold), the “positive regulation of Tregs cells” value is 5.0-6.0 ×. For the same substance, the “Foxp3+ regulatory T cells” value with Treg (CD4+/FOXP3+) cells (early and long-standing arthritis, first and second sacrifice, vs placebo) is “increase”.
